From PubChem BioAssay AID248 (DTP/NCI, 2004)
Where “and” joins values, the source holds several entries; their conditions need not be identical. Equal values may be shown once. Inconclusive results and toxic doses are left out.

Tested on: L1210 leukemia ip in BDF1 mice, survival T/C
Assay: NCI In Vivo Anticancer Drug Screen. Data for tumor model L1210 Leukemia (intraperitoneal) in B6D2F1 (BDF1) mice
Details: endpoint: mean survival time, higher = longer survival
Summary of the method: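 Tumor cells were implanted, animals were treated, and survival was followed. The result divides the treated measurement by the vehicle-control measurement.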

[1] = dose: 100.0 mg/kg/injection, schedule: Q01DX009 (ip), vehicle: saline with Tween-80
[2] = dose: 100.0 mg/kg/injection, schedule: Q04DX003 (ip), vehicle: saline with Tween-80
[3] = dose: 200.0 mg/kg/injection, schedule: Q01DX009 (ip), vehicle: saline with Tween-80
[4] = dose: 200.0 mg/kg/injection, schedule: Q04DX003 (ip), vehicle: saline with Tween-80
[5] = dose: 400.0 mg/kg/injection, schedule: Q04DX003 (ip), vehicle: saline with Tween-80
[6] = dose: 100.0 mg/kg/injection, schedule: Q01DX001 (ip), vehicle: saline
[7] = dose: 200.0 mg/kg/injection, schedule: Q01DX001 (ip), vehicle: saline
[8] = dose: 400.0 mg/kg/injection, schedule: Q01DX001 (ip), vehicle: saline
[9] = dose: 100.0 mg/kg/injection, schedule: Q04DX003 (ip), vehicle: Klucel (hydroxypropylcellulose) (HPC)
[10] = dose: 200.0 mg/kg/injection, schedule: Q04DX003 (ip), vehicle: Klucel (hydroxypropylcellulose) (HPC)
[11] = dose: 400.0 mg/kg/injection, schedule: Q04DX003 (ip), vehicle: Klucel (hydroxypropylcellulose) (HPC)

C[C@]12CC[C@H]3[C@@H](CCC4=CC(=O)CC[C@@]43CO)[C@@H]1CC[C@@H]2O
T/C (dose: 50.0 mg/kg/injection, schedule: Q01DX001 (sc), vehicle: steriod suspending solution): 102 % of control | T/C (dose: 100.0 mg/kg/injection, schedule: Q01DX001 (sc), vehicle: steriod suspending solution): 98 % of control | T/C (dose: 200.0 mg/kg/injection, schedule: Q01DX001 (sc), vehicle: steriod suspending solution): 98 % of control | T/C (dose: 400.0 mg/kg/injection, schedule: Q01DX001 (sc), vehicle: steriod suspending solution): 102 % of control

COc1cc(/C=C/C(C)=O)ccc1O
T/C (dose: 50.0 mg/kg/injection, schedule: Q01DX009 (ip), vehicle: saline with Tween-80): 101 % of control | T/C [1]: 101 % of control | T/C [2]: 93 % of control | T/C [3]: 98 % of control | T/C [4]: 98 % of control | T/C [5]: 98 % of control

CC[N+](C)(CC)CCCN1C(=O)c2ccccc2S1(=O)=O
T/C (dose: 22.0 mg/kg/injection, schedule: Q01DX Z (ip), vehicle: methylcellulose (MC)): 94 % of control | T/C (dose: 33.0 mg/kg/injection, schedule: Q01DX Z (ip), vehicle: methylcellulose (MC)): 96 % of control | T/C (dose: 50.0 mg/kg/injection, schedule: Q01DX Z (ip), vehicle: methylcellulose (MC)): 91 % of control

CC(OCCC#N)C(C)OCCC#N (centres undefined)
T/C (dose: 44.0 mg/kg/injection, schedule: Q01DX001 (ip), vehicle: saline): 93 % of control | T/C (dose: 45.0 mg/kg/injection, schedule: Q01DX001 (ip), vehicle: saline): 102 % of control | T/C (dose: 50.0 mg/kg/injection, schedule: Q01DX001 (ip), vehicle: saline): 98 % of control | T/C (dose: 67.0 mg/kg/injection, schedule: Q01DX001 (ip), vehicle: saline): 96 % of control and 104 % of control | T/C [6]: 98 % of control and 101 % of control (2×) | T/C (dose: 150.0 mg/kg/injection, schedule: Q01DX001 (ip), vehicle: saline): 101 % of control and 102 % of control | T/C [7]: 98 % of control | T/C [8]: 98 % of control

CC(=O)Nc1cccc(OCCCOc2cccc(C#N)c2)c1
T/C [9]: 96 % of control | T/C [10]: 101 % of control | T/C [11]: 98 % of control

NS(=O)(=O)CS(N)(=O)=O
T/C [6]: 100 % of control | T/C [7]: 96 % of control | T/C [8]: 96 % of control

COC(=O)C1C(c2ccc(-c3ccccc3)cc2)N1C1CCCCC1 (centres undefined)
T/C (dose: 100.0 mg/kg/injection, schedule: Q01DX001 (ip), vehicle: Klucel (hydroxypropylcellulose) (HPC)): 96 % of control | T/C [9]: 104 % of control | T/C (dose: 200.0 mg/kg/injection, schedule: Q01DX001 (ip), vehicle: Klucel (hydroxypropylcellulose) (HPC)): 95 % of control | T/C [10]: 107 % of control | T/C (dose: 400.0 mg/kg/injection, schedule: Q01DX001 (ip), vehicle: Klucel (hydroxypropylcellulose) (HPC)): 93 % of control | T/C [11]: 98 % of control

N=C(N)SCCSC(=N)N
T/C (dose: 100.0 mg/kg/injection, schedule: Q04DX003 (ip), vehicle: saline sonified): 93 % of control

O=c1c(N2CCOCC2)c(N2CCOCC2)c1=O
T/C [1]: 100 % of control | T/C [2]: 104 % of control | T/C [3]: 100 % of control | T/C [4]: 103 % of control | T/C (dose: 400.0 mg/kg/injection, schedule: Q01DX009 (ip), vehicle: saline with Tween-80): 100 % of control | T/C [5]: 95 % of control

S=c1nc[nH]c2c1ncn2CN1CCOCC1
T/C (dose: 30.0 mg/kg/injection, schedule: Q01DX015 (ip), vehicle: saline): 119 % of control | T/C (dose: 42.0 mg/kg/injection, schedule: Q01DX009 (ip), vehicle: carboxymethylcellulose (CMC)): 118 % of control | T/C (dose: 80.0 mg/kg/injection, schedule: Q01DX015 (ip), vehicle: saline): 153 % of control | T/C (dose: 100.0 mg/kg/injection, schedule: Q01DX001 (ip), vehicle: carboxymethylcellulose (CMC)): 112 % of control | T/C [6]: 110 % of control | T/C (dose: 120.0 mg/kg/injection, schedule: Q01DX009 (ip), vehicle: carboxymethylcellulose (CMC)): 168 % of control | T/C (dose: 135.0 mg/kg/injection, schedule: Q01DX015 (ip), vehicle: saline): 152 % of control | T/C (dose: 177.0 mg/kg/injection, schedule: Q01DX001 (ip), vehicle: saline): 152 % of control | T/C [7]: 122 % of control | T/C (dose: 200.0 mg/kg/injection, schedule: Q01DX009 (ip), vehicle: carboxymethylcellulose (CMC)): 91 % of control | T/C (dose: 266.0 mg/kg/injection, schedule: Q01DX001 (ip), vehicle: saline): 163 % of control | T/C (dose: 400.0 mg/kg/injection, schedule: Q01DX001 (ip), vehicle: carboxymethylcellulose (CMC)): 164 % of control and 166 % of control | T/C [8]: 152 % of control | T/C (dose: 600.0 mg/kg/injection, schedule: Q01DX001 (ip), vehicle: saline): 152 % of control
